Results on two compounds are retold here after US4990531A, “Derivatives of 1-arylsulphonyl-2-pyrrolidinone and their use as medicaments” (Roussel Uclaf, priority 1988, dated 1991).

Experiment [1] addresses serotonine 5 HT1 receptor. Nature of the experiment: Affinity for other receptors: serotonine 5 HT1. The format is binding. The conditions noted are these: negligible affinity.
In another experiment the target is T1, Muscarine receptor 1 (Rattus norvegicus, UniProt P08482).
T1 construct: prepared from cortex removed from the brains of a male rat; from tissue; host or cells: rat cerebral cortex homogenate (male rat, Iffa Credo)
T1 sequence (P08482 whole entry): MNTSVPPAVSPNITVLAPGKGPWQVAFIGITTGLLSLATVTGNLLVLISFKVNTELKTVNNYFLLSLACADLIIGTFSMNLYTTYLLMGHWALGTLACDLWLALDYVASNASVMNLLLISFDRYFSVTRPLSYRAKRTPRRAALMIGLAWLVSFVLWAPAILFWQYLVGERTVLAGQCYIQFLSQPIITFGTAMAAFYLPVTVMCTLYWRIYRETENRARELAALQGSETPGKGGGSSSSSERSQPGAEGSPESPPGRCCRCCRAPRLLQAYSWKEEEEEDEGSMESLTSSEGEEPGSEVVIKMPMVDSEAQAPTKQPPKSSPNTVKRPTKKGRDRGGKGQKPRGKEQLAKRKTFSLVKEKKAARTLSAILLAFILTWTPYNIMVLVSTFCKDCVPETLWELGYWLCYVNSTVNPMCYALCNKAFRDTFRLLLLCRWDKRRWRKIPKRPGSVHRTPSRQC
Nature of the experiment: Bonding with cerebral receptors: muscarine receptor 1 (3H pirenzepine, rat cortex). The format is binding. Particulars: 0.25 nM 3H pirenzepine, 60 min, 25° C., pH 7.4; read-out: Affinity for muscarine receptor M1 (/3H/Pirenzepine), IC50. How it is done: This is prepared from cortex removed from the brains of a male rat weighing 150 to 200 g, (Iffa Credo) pulverized with Polytron in a buffer Na/K 10 mM pH 7.4. After incubation (aliquots of 0.5 ml of homogenate) for 60 minutes at 25° C. in the presence of 0.25 nM of ^3 H pirenzepine, either alone, or with the product under test, or with an excess of pirenzepine at 10^-5 M (in order to determine the non-specific radioactivity fixed), the incubates are cooled and filtered.
The filtration is carried out on Whatman GF/C filters prewashed in a solution of polyethylene-imine at 0.05%. The filters are rinsed with 3×5 ml of phosphate Na/K buffer 10 mM pH 7.4, then measurements are made by liquid scintillation.

Experiment [2] concerns contractions induced by acetylcholine, isolated ileum. The experiment in a line: Antagonism of acetylcholine-induced contractions, isolated guinea-pig ileum. The conditions noted are these: acetylcholine 1×10^-6 M; contact time one minute; read-out: Antagonism with various agents (IC50): Ach. How it is done: (§1) The interaction of the compounds with various receptors was evaluated on the isolated ileum of a guinea-pig according to the following method.
(§2) Segments of the ileum of guinea-pigs of 2.5-3 cm were washed and immediately suspended in a bath containing 10 ml of Tyrode's solution at 37° C. and aerated with a mixture of oxygen (95%) and carbon dioxide (5%). After a stabilization period of at least 30 minutes contractions were recorded, while the preparation was maintained under constant tension of 1 g, by means of a detector connected to a polygraph. The agonistic action was evaluated by leaving the compound in contact with the isolated tissue for a period necessary to show the maximum […]; then it was washed with the Tyrode's solution. The following dose was added only after the preparation had returned to its base line. Arecoline was used as a reference product. The antagonist action was evaluated on the contractions induced by acetylcholine (1×10^-6 M), histamine (1×10^-5 M), serotonine (1×10^-6 M) and barium chloride (2×10^-4 M). […] The contact time before adding the agonist was one minute.
(§3) For each compound the does response curves are obtained with 4 to 6 different concentrations and 3 to 5 independent tests. The agonist activity is expressed by pD2 (negative logarithm of the dose which produces 50% of the maximum effect).

Another experiment concerns the target GABA receptor. The experiment in a line: Affinity for other receptors: GABA. Type of experiment: binding. The conditions noted are these: negligible affinity.
In a further experiment the target is opiated receptor kappa (Homo sapiens, UniProt P41145). The experiment in a line: Affinity for other receptors: opiated receptor kappa. The conditions noted are these: negligible affinity. Type of experiment: binding.
Chain of opiated receptor kappa (P41145 whole entry): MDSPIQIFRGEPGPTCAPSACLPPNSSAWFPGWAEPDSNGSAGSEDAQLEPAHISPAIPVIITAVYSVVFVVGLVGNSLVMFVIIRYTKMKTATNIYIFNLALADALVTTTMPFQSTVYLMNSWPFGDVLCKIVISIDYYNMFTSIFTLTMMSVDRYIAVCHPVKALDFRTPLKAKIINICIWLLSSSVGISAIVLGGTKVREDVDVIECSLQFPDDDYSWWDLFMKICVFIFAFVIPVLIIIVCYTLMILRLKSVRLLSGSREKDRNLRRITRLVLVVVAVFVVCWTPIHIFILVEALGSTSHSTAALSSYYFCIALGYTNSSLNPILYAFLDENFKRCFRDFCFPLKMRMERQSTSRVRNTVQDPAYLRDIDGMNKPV
In experiment [3] the test system is contractions induced by histamine, isolated ileum. Nature of the experiment: Antagonism of histamine-induced contractions, isolated guinea-pig ileum. The conditions noted are these: histamine 1×10^-5 M; contact time one minute; read-out: Antagonism with various agents (IC50): Istam. How it is done:
as §1, §2, §3

Another experiment concerns isolated ileum. The experiment in a line: Agonist action on isolated guinea-pig ileum. The conditions noted are these: negative logarithm of the dose producing 50% of maximum effect. How it is done:
as §1, §2, §3

For experiment [4], the target named is serotonine 5 HT2 receptor (Homo sapiens, UniProt P28223). Nature of the experiment: Affinity for other receptors: serotonine 5 HT2. The format is binding. Particulars: negligible affinity.
Chain of serotonine 5 HT2 receptor (P28223 whole entry): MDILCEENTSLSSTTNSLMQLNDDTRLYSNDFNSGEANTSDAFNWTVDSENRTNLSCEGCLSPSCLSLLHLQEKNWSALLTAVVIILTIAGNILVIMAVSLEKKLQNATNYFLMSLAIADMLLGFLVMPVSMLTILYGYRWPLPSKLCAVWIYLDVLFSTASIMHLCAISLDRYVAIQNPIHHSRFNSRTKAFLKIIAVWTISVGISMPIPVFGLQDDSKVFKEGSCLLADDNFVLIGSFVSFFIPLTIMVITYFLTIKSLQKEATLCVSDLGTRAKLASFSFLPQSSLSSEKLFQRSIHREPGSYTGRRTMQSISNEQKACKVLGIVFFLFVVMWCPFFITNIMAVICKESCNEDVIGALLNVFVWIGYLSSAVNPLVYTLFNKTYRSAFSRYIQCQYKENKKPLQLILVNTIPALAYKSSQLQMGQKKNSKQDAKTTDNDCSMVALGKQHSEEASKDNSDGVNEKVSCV
The target in another experiment is benzodiazepine receptor. The experiment in a line: Affinity for other receptors: benzodiazepines. The format is binding. Particulars: negligible affinity.
For another experiment, the target named is adrenoreceptor alpha 1. Nature of the experiment: Affinity for other receptors: adrenoreceptor alpha 1. Type of experiment: binding. Particulars: negligible affinity.
The test system of experiment [5] is contractions induced by serotonine, isolated ileum. Nature of the experiment: Antagonism of serotonine-induced contractions, isolated guinea-pig ileum. Particulars: serotonine 1×10^-6 M; contact time one minute; read-out: Antagonism with various agents (IC50): Seroton. As to the method: as §1, §2, §3
In another experiment the target is adrenoreceptor beta 1 (Homo sapiens, UniProt P08588). Nature of the experiment: Affinity for other receptors: adrenoreceptor beta 1. Type of experiment: binding. The conditions noted are these: negligible affinity.
Chain of adrenoreceptor beta 1 (P08588 whole entry): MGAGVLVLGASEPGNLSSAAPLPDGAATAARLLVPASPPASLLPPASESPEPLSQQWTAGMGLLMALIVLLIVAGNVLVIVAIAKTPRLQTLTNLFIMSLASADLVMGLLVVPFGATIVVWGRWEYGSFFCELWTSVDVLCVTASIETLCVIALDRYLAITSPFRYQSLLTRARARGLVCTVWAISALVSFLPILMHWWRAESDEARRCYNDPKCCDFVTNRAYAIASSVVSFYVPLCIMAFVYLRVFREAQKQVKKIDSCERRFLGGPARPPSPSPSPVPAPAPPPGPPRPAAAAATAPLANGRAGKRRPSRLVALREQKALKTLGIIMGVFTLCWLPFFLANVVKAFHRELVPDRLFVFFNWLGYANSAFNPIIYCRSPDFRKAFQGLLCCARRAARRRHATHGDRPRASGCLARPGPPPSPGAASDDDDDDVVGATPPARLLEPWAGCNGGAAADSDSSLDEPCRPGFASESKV
The target in a further experiment is adrenoreceptor alpha 2. Nature of the experiment: Affinity for other receptors: adrenoreceptor alpha 2. Type of experiment: binding. Particulars: negligible affinity.

In the case of `CCN(CC)c1ccc(S(=O)(=O)N2CCCC2=O)cc1` [Example 2, 1-[4-(diethylamino)benzenesulphonyl]-2-pyrrolidinone], the IC50 in experiment [1] was 5 to 10 µM; on Muscarine receptor 1, 0.098 µM; in experiment [2], 0.062 µM; against GABA receptor, 5 to 10 µM; against opiated receptor kappa it was 5 to 10 µM; in [3], more than 100 µM. In addition, the IC50 was 5 to 10 µM in [4]; 5 to 10 µM on benzodiazepine receptor; 5 to 10 µM against adrenoreceptor alpha 1; more than 100 µM in experiment [5]; 5 to 10 µM against adrenoreceptor beta 1; 5 to 10 µM on adrenoreceptor alpha 2. Besides, the “Agonist Action (pD2)” value with isolated ileum is less than 4.
Regarding `CC(C)(C)c1ccc(S(=O)(=O)N2CCCC2=O)cc1` [Example 1, 1-(4-tert-butylbenzenesulphonyl)-2-pyrrolidinone], the IC50 in experiment [1] was 5 to 10 µM; on Muscarine receptor 1 it was 0.13 µM; in [2], 0.064 µM; at GABA receptor it was 5 to 10 µM; against opiated receptor kappa, 5 to 10 µM; in [3], more than 100 µM. Besides, the IC50 was 5 to 10 µM in experiment [4]; 5 to 10 µM against benzodiazepine receptor; 5 to 10 µM against adrenoreceptor alpha 1; more than 100 µM in experiment [5]; 5 to 10 µM on adrenoreceptor beta 1; 5 to 10 µM against adrenoreceptor alpha 2. Moreover, in the experiment on isolated ileum, the “Agonist Action (pD2)” value is recorded as less than 4.
